According to patent publication US20250120932A1, “PHARMACEUTICAL COMPOSITION” (NEUROPRO THERAPEUTICS, INC., priority 2021, published 2025):

Assay: Pharmacokinetic study in cynomolgus monkeys after oral (nasogastric) gavage, sublingual and intravenous administration
Type: in vivo
Details: cynomolgus monkey, plasma, Plasma Bumetanide Dibenzylamide concentration, monkey; for concentration at 0.5 h: 0.50 h
Procedure: A pharmacokinetic study was done in cynomolgus monkeys following single oral (nasogastric) gavage, sublingual, and intravenous administration. […] Calibration curves, blanks, and analytical QCs were prepared in monkey plasma (K2EDTA). The extracts were evaporated to dryness, reconstituted, and then analyzed by LC-MS/MS. The calibration range was 0.250-250 ng/mL for both analytes.
If the criteria for either the calibration curve or the analytical QCs were not met, the analytical run was rejected. […] No deviations were found during the bioanalytical phase of the study conducted by Origin. Calibration curves were derived from the individual analyte to internal standard peak area ratios using the least squared regression of the ratio versus the nominal concentration of the calibration standard, prepared in duplicate. The regression was then used to back-calculate the concentration of each calibration standard, QC sample and study sample. […] Analyst® Software Version 1.6.3 (Applied Biosystems-MDS Sciex), operated with Windows® (Microsoft), was used for instrument control, data acquisition, and peak integrations. Peak area ratios, standard curve regressions, and sample concentration/accuracy values were calculated with Analyst® Software Version 1.6.3. Other results (e.g., mean statistics) were calculated with Excel® (Microsoft).
There was no apparent sex difference for the second formulation. […] A fourth formulation comprising the composition B listed in Table 54 was also administered in monheys.

[1] = both sexes, oral, 30 mg/kg, Mean, NG 30 mg/kg, First Formulation (Form 1), N=4
[2] = both sexes, oral, 30 mg/kg, Mean, NG 30 mg/kg, Second Formulation (Form 3), N=4
[3] = both sexes, oral, 30 mg/kg, Median, NG 30 mg/kg, First Formulation (Form 1), N=4
[4] = both sexes, oral, 30 mg/kg, Median, NG 30 mg/kg, Second Formulation (Form 3), N=4
[5] = intravenous, 2 mg/kg, Mean, dose column 2 mg/kg (title 30 mg/kg), Third Formulation (Form 4), N=4
[6] = intravenous, 2 mg/kg, dose column 2 mg/kg (title 30 mg/kg), Third Formulation (Form 4), individual animals
[7] = other: sublingual, 5 mg/kg, Mean, SL, dose column 5 mg/kg (title 30 mg/kg), Fourth Formulation (Form 2), N=4
[8] = other: sublingual, 5 mg/kg, Median, SL, dose column 5 mg/kg (title 30 mg/kg), Fourth Formulation (Form 2), N=4

## CCCCNc1cc(C(=O)N(Cc2ccccc2)Cc2ccccc2)cc(S(N)(=O)=O)c1Oc1ccccc1 [Bumetanide Dibenzylamide, N, N-dibenzyl 3-aminosulfonyl-5-butylamino-4-phenoxybenzamide]
[1]
  concentration at 0 h: 0 ng/mL
  concentration at 0.25 h: 4.31 ng/mL
  concentration at 0.5 h: 5.9 ng/mL
Both sexes, oral, 30 mg/kg, Mean, NG 30 mg/kg, First Formulation (Form 1), 1.00 h, N=4
  concentration at 1 h: 13.2 ng/mL
Both sexes, oral, 30 mg/kg, Mean, NG 30 mg/kg, First Formulation (Form 1), 2.00 h, N=4
  concentration at 2 h: 62.6 ng/mL
Both sexes, oral, 30 mg/kg, Mean, NG 30 mg/kg, First Formulation (Form 1), 4.00 h, N=4
  concentration at 4 h: 66.8 ng/mL
Both sexes, oral, 30 mg/kg, Mean, NG 30 mg/kg, First Formulation (Form 1), 8.00 h, N=4
  concentration at 8 h: 44.9 ng/mL
Both sexes, oral, 30 mg/kg, Mean, NG 30 mg/kg, First Formulation (Form 1), 24.00 h, N=4
  concentration at 24 h: 8.59 ng/mL
Both sexes, oral, 30 mg/kg, Mean, NG 30 mg/kg, First Formulation (Form 1), 32.00 h, N=4
  concentration at 32 h: 4.51 ng/mL
[2]
  concentration at 0 h: 0 ng/mL
  concentration at 0.25 h: 0.283 ng/mL
  concentration at 0.5 h: 2.85 ng/mL
Both sexes, oral, 30 mg/kg, Mean, NG 30 mg/kg, Second Formulation (Form 3), 1.00 h, N=4
  concentration at 1 h: 11.5 ng/mL
Both sexes, oral, 30 mg/kg, Mean, NG 30 mg/kg, Second Formulation (Form 3), 2.00 h, N=4
  concentration at 2 h: 54.1 ng/mL
Both sexes, oral, 30 mg/kg, Mean, NG 30 mg/kg, Second Formulation (Form 3), 4.00 h, N=4
  concentration at 4 h: 231 ng/mL
Both sexes, oral, 30 mg/kg, Mean, NG 30 mg/kg, Second Formulation (Form 3), 8.00 h, N=4
  concentration at 8 h: 590 ng/mL
Both sexes, oral, 30 mg/kg, Mean, NG 30 mg/kg, Second Formulation (Form 3), 24.00 h, N=4
  concentration at 24 h: 13.6 ng/mL
Both sexes, oral, 30 mg/kg, Mean, NG 30 mg/kg, Second Formulation (Form 3), 32.00 h, N=4
  concentration at 32 h: 2.94 ng/mL
[3]
  concentration at 0 h: 0 ng/mL
  concentration at 0.25 h: 0.962 ng/mL
  concentration at 0.5 h: 2.82 ng/mL
Both sexes, oral, 30 mg/kg, Median, NG 30 mg/kg, First Formulation (Form 1), 1.00 h, N=4
  concentration at 1 h: 10.1 ng/mL
Both sexes, oral, 30 mg/kg, Median, NG 30 mg/kg, First Formulation (Form 1), 2.00 h, N=4
  concentration at 2 h: 42.6 ng/mL
Both sexes, oral, 30 mg/kg, Median, NG 30 mg/kg, First Formulation (Form 1), 4.00 h, N=4
  concentration at 4 h: 37.6 ng/mL
Both sexes, oral, 30 mg/kg, Median, NG 30 mg/kg, First Formulation (Form 1), 8.00 h, N=4
  concentration at 8 h: 31.3 ng/mL
Both sexes, oral, 30 mg/kg, Median, NG 30 mg/kg, First Formulation (Form 1), 24.00 h, N=4
  concentration at 24 h: 5.38 ng/mL
Both sexes, oral, 30 mg/kg, Median, NG 30 mg/kg, First Formulation (Form 1), 32.00 h, N=4
  concentration at 32 h: 3.75 ng/mL
[4]
  concentration at 0 h: 0 ng/mL
  concentration at 0.25 h: 0.256 ng/mL
  concentration at 0.5 h: 2.44 ng/mL
Both sexes, oral, 30 mg/kg, Median, NG 30 mg/kg, Second Formulation (Form 3), 1.00 h, N=4
  concentration at 1 h: 9.43 ng/mL
Both sexes, oral, 30 mg/kg, Median, NG 30 mg/kg, Second Formulation (Form 3), 2.00 h, N=4
  concentration at 2 h: 58.6 ng/mL
Both sexes, oral, 30 mg/kg, Median, NG 30 mg/kg, Second Formulation (Form 3), 4.00 h, N=4
  concentration at 4 h: 194 ng/mL
Both sexes, oral, 30 mg/kg, Median, NG 30 mg/kg, Second Formulation (Form 3), 8.00 h, N=4
  concentration at 8 h: 566 ng/mL
Both sexes, oral, 30 mg/kg, Median, NG 30 mg/kg, Second Formulation (Form 3), 24.00 h, N=4
  concentration at 24 h: 10 ng/mL
Both sexes, oral, 30 mg/kg, Median, NG 30 mg/kg, Second Formulation (Form 3), 32.00 h, N=4
  concentration at 32 h: 1.86 ng/mL
Both sexes, oral, 30 mg/kg, NG 30 mg/kg, First Formulation (Form 1), individual animals
  concentration at 0 h: 0 ng/mL
Both sexes, oral, 30 mg/kg, NG 30 mg/kg, Second Formulation (Form 3), individual animals
  concentration at 0 h: 0 ng/mL
Both sexes, oral, 30 mg/kg, NG 30 mg/kg, Second Formulation (Form 3), 8.00 h, individual animals
  concentration at 8 h: 442 ng/mL
[5]
  concentration at 0.08 h: 1440 ng/mL
  concentration at 0.5 h: 664 ng/mL
intravenous, 2 mg/kg, Mean, dose column 2 mg/kg (title 30 mg/kg), Third Formulation (Form 4), 1.00 h, N=4
  concentration at 1 h: 483 ng/mL
intravenous, 2 mg/kg, Mean, dose column 2 mg/kg (title 30 mg/kg), Third Formulation (Form 4), 2.00 h, N=4
  concentration at 2 h: 285 ng/mL
intravenous, 2 mg/kg, Mean, dose column 2 mg/kg (title 30 mg/kg), Third Formulation (Form 4), 4.00 h, N=4
  concentration at 4 h: 114 ng/mL
intravenous, 2 mg/kg, Mean, dose column 2 mg/kg (title 30 mg/kg), Third Formulation (Form 4), 8.00 h, N=4
  concentration at 8 h: 30.7 ng/mL
intravenous, 2 mg/kg, Mean, dose column 2 mg/kg (title 30 mg/kg), Third Formulation (Form 4), 24.00 h, N=4
  concentration at 24 h: 3.57 ng/mL
intravenous, 2 mg/kg, Mean, dose column 2 mg/kg (title 30 mg/kg), Third Formulation (Form 4), 32.00 h, N=4
  concentration at 32 h: 1.48 ng/mL
[6]
  concentration at 0.08 h: 1860 ng/mL
  concentration at 0.5 h: 717 ng/mL
intravenous, 2 mg/kg, dose column 2 mg/kg (title 30 mg/kg), Third Formulation (Form 4), 1.00 h, individual animals
  concentration at 1 h: 538 ng/mL
intravenous, 2 mg/kg, dose column 2 mg/kg (title 30 mg/kg), Third Formulation (Form 4), 2.00 h, individual animals
  concentration at 2 h: 332 ng/mL
intravenous, 2 mg/kg, dose column 2 mg/kg (title 30 mg/kg), Third Formulation (Form 4), 4.00 h, individual animals
  concentration at 4 h: 149 ng/mL
[7]
  concentration at 0 h: 0 ng/mL
  concentration at 0.25 h: 0 ng/mL
  concentration at 0.5 h: 0 ng/mL
other: sublingual, 5 mg/kg, Mean, SL, dose column 5 mg/kg (title 30 mg/kg), Fourth Formulation (Form 2), 1.0 h, N=4
  concentration at 1 h: 0 ng/mL
other: sublingual, 5 mg/kg, Mean, SL, dose column 5 mg/kg (title 30 mg/kg), Fourth Formulation (Form 2), 2.0 h, N=4
  concentration at 2 h: 0.155 ng/mL
other: sublingual, 5 mg/kg, Mean, SL, dose column 5 mg/kg (title 30 mg/kg), Fourth Formulation (Form 2), 4.0 h, N=4
  concentration at 4 h: 0.114 ng/mL
other: sublingual, 5 mg/kg, Mean, SL, dose column 5 mg/kg (title 30 mg/kg), Fourth Formulation (Form 2), 8.0 h, N=4
  concentration at 8 h: 0.41 ng/mL
other: sublingual, 5 mg/kg, Mean, SL, dose column 5 mg/kg (title 30 mg/kg), Fourth Formulation (Form 2), 24.0 h, N=4
  concentration at 24 h: 0.248 ng/mL
other: sublingual, 5 mg/kg, Mean, SL, dose column 5 mg/kg (title 30 mg/kg), Fourth Formulation (Form 2), 32.0 h, N=4
  concentration at 32 h: 0.0803 ng/mL
[8]
  concentration at 0 h: 0 ng/mL
  concentration at 0.25 h: 0 ng/mL
  concentration at 0.5 h: 0 ng/mL
other: sublingual, 5 mg/kg, Median, SL, dose column 5 mg/kg (title 30 mg/kg), Fourth Formulation (Form 2), 1.0 h, N=4
  concentration at 1 h: 0 ng/mL
